{"source": "patent US12084431B2", "about": "“Pharmaceutical salts of pyrimidine derivatives and method of treating disorders” (ARIAD Pharmaceuticals, Inc., priority 2018, dated 2024)", "key": {"[1]": {"experiment": "Phase 1/2 study, safety (adverse events, dose limiting toxicities, MTD)", "description": "Patients with advanced NSCLC refractory to standard therapy received daily oral doses (5-120 mg) of Compound (A) in the dose-escalation phase. Compound (A) was provided as polymorphic Form-I of the succinate salt of Compound (A). Compound (A) was formulated as a drug-in-capsule with no excipients and administered orally. Preliminary antitumor activity (by RECIST v1.1), safety and pharmacokinetics are reported for patients receiving at least one dose.\nAs part of the same phase ½ study as described in Example 12, a dose escalation study was performed. […] 2018.\nThe phase 2 portion of the study was initiated to expand the study in two 160 mg QD cohorts (EGFR exon 20 mutant NSCLC patients with or without brain metastases) and continue to enroll more patients in the 120 mg cohort."}, "[2]": {"experiment": "Single rising dose study in healthy subjects (safety, food effect, relative bioavailability)", "assay_type": "in vivo, human", "source_text": "This study is a randomized, double-blind, placebo-controlled single rising dose study (Part 1), followed by an open-label, crossover evaluation of the effects of a low-fat meal on the pharmacokinetics (PK) of Compound (A) (Part 2), and a crossover evaluation of the relative bioavailability of Compound (A) drug-in-capsule (DiC) (test) versus DiC (reference) in healthy subjects (Part 3)."}, "[3]": {"experiment": "Clinical pharmacokinetics in NSCLC patients, oral once daily", "assay_type": "in vivo, human", "conditions": "for half-life: human, plasma, po", "description": "Clinical PK data includes data from the dose escalation portion of the study. Compound (A) has been administered orally once per day in 28-day treatment cycles at dose levels of 5, 10, 20, 40, 80, 120, 160 and 180 mg. […] The dosage identified in milligrams (mg) is based on the weight of the freebase of Compound (A). FIGS. 33, 34 show the mean plasma concentration-time profiles of Compound (A) following oral administration of Compound (A) once per day in NSCLC patients.\nCompound (A) is administered orally on an empty stomach once per day continuously."}, "[4]": {"system": "advanced NSCLC (EGFR exon 20 insertions)", "experiment": "Phase 1/2 study, antitumor activity / disease assessment by RECIST v1.1", "assay_type": "in vivo, human", "description": "52 patients were enrolled as of 30 Jan. 2018.\nDisease stabilization started to be reported at the 40 mg QD cohort. Disease assessments for patients who had at least one disease assessment following treatment with Compound (A) are shown in Table 21. All patients who responded have EGFR exon 20 insertion mutations and had previously been treated with platinum-based chemotherapy, EGFR TKIs, or PD-1 inhibitors."}, "[5]": {"experiment": "physchem", "conditions": "pH 6.97, water, thermodynamic from solid", "experimental": "(§1) The resulting solid material was isolated by centrifugation and analyzed by XRPD, while the filtrate was analyzed by HPLC for concentration determination. The pH of the resulting filtrate was also determined."}, "[6]": {"experiment": "Stability stress testing (ambient light, 40° C./75% RH, 80° C., 7 days; XRPD and HPLC purity)", "assay_type": "physicochemical", "description": "Approximately 5 mg of the appropriate samples were placed into 2 mL clear glass vials and the vials were all stored open under the conditions of ambient light, 40° C./75% RH, and 80° C. for 7 days, respectively. The ambient light sample was left open on the bench at room temperature. The 80° C. sample was placed open into an 80° C. oven."}, "[7]": {"experiment": "Thermodynamic aqueous solubility studies (de-ionized water, 24 h, HPLC concentration, filtrate pH, XRPD of solid)", "conditions": "pH of filtrate after 24 h slurry in de-ionized water (pH 6.97), ambient temperature", "experimental": "as §1"}, "[8]": {"experiment": "Vapour sorption analysis (GVS, hygroscopicity)", "assay_type": "physicochemical", "conditions": "% uptake at 90% RH", "description": "Approximately 10 mg of the sample was placed into a mesh vapor sorption balance pan and loaded into an IGASorp Moisture Sorption Analyzer balance by Hiden Analytical. The sample was subjected to a ramping profile from 40 to 90% relative humidity (RH) at 10% increments to 90% RH, maintaining the sample at each step until a stable weight had been achieved (98% step completion). After completion of the sorption cycle, the sample was dried using the same procedure (initially from 90% RH to 0% RH and finally taken back to the starting point of 40% RH). The sorption/desorption profiles were then repeated to give a double-cycle plot. The weight changes during the sorption/desorption cycles were plotted, allowing for the hygroscopic nature of the sample to be determined."}, "[9]": {"conditions": "80 mg QD cohort, oral, NSCLC patients, RECIST v1.1"}, "[10]": {"conditions": "120 mg QD cohort, oral, NSCLC patients, RECIST v1.1"}}, "note": "Like-named read-outs stand apart in the source and are kept apart here."}
{"smiles": "C=CC(=O)Nc1cc(Nc2ncc(C(=O)OC(C)C)c(-c3cn(C)c4ccccc34)n2)c(OC)cc1N(C)CCN(C)C", "note": "[Compound (A), propan-2-yl 2-[5-(acryloylamino)-4-{[2-(dimethylamino)ethyl](methyl)amino}-2-methoxyanilino]-4-(1-methyl-1H-indol-3-yl)pyrimidine-5-carboxylate]", "values": [{"measurement": "maximum tolerated dose (MTD)", "setting": "[1]; QD, oral, NSCLC patients, dose escalation 5-180 mg QD and 40 mg BID", "result": 160, "unit": "mg"}, {"measurement": "discontinuation for adverse event (AE), patients", "setting": "[1]; human, in vivo", "result": 15.4, "unit": "%"}, {"measurement": "patients with Grade 3 TEAEs", "setting": "[1]; human, in vivo", "result": 51.9, "unit": "%"}, {"measurement": "patients with at least 1 treatment-emergent serious adverse event (SAE)", "setting": "[1]; human, in vivo", "result": 38.5, "unit": "%"}, {"measurement": "patients with at least 1 treatment-related SAE", "setting": "[1]; human, in vivo", "result": 9.6, "unit": "%"}, {"measurement": "patients with at least 1 treatment-related adverse event (TRAE)", "setting": "[1]; human, in vivo", "result": 78.8, "unit": "%"}, {"measurement": "patients with at least one TEAE", "setting": "[1]; human, in vivo", "result": 88.5, "unit": "%"}, {"measurement": "dose limiting toxicities", "setting": "[1]; in vivo", "result": "Two dose limiting toxicities, both pneumonitis"}, {"measurement": "SAEs", "setting": "[2]", "result": "No SAEs were reported"}, {"measurement": "safety and tolerability", "setting": "[2]; up to a single oral dose of 160 mg", "result": "safe and well tolerated"}, {"measurement": "accumulation, peak/trough ratio and molar metabolite/parent Cav ratios of the two active metabolites versus dose", "setting": "[3]; 5 to 180 mg QD, suggesting no obvious trend of time-dependent inhibition or auto-induction", "result": "independent of Compound (A) dose"}, {"measurement": "AUC24 dependence on dose", "setting": "[3]; Cycle 2 Day 1, multiple dose, 5 to 180 mg QD", "result": "increased in an approximately dose-proportional manner"}, {"measurement": "AUC0-24,ss dependence on dose", "setting": "[3]; NSCLC patients, daily oral doses 5-120 mg, first results", "result": "increased in a dose-proportional manner"}, {"measurement": "half-life", "setting": "[3]; NSCLC patients, daily oral doses 5-120 mg, first results, read-out: effective t1/2 (converted)", "result": "~16", "unit": "h"}, {"measurement": "half-life", "setting": "[3]; oral QD, NSCLC patients, read-out: effective half-life based on accumulation, geometric mean (converted)", "result": "~15", "unit": "h"}, {"measurement": "half-life", "setting": "[3]; oral QD, NSCLC patients, read-out: effective half-life based on accumulation, range", "result": "6 to 27", "unit": "h"}, {"measurement": "accumulation in AUC24", "setting": "[3]; oral QD", "result": "approximately 1.5 fold"}, {"measurement": "Disease assessments: SD (stable disease), number of patients", "setting": "[4]; 40 mg QD cohort, oral, NSCLC patients, RECIST v1.1", "result": 3, "unit": "patients"}, {"measurement": "additional patients with SD", "setting": "[4]; 80 mg QD and above, including 1 at 180 mg QD", "result": 6, "unit": "patients"}, {"measurement": "objective response", "setting": "[4]; 80 mg QD and above, 2 confirmed PR at 80 mg QD, 1 confirmed complete response at 120 mg QD, 2 PR awaiting confirmation at 160 mg QD", "result": 5, "unit": "patients"}, {"measurement": "Disease assessments: PR (partial response), number of patients", "setting": "[4]; [9]", "result": 2, "unit": "patients"}, {"measurement": "Disease assessments: SD (stable disease), number of patients", "setting": "[4]; [9]", "result": 2, "unit": "patients"}, {"measurement": "Disease assessments: CR (complete response), number of patients", "setting": "[4]; [10]", "result": 1, "unit": "patient"}, {"measurement": "Disease assessments: SD (stable disease), number of patients", "setting": "[4]; [10]", "result": 2, "unit": "patients"}, {"measurement": "Disease assessments: SD (stable disease), number of patients", "setting": "[4]; 160 mg QD cohort, oral, NSCLC patients, RECIST v1.1", "result": 1, "unit": "patient"}, {"measurement": "Disease assessments: PR (partial response), number of patients", "setting": "[4]; 160 mg QD cohort, oral, NSCLC patients, RECIST v1.1, unconfirmed", "result": 2, "unit": "patients ^a"}, {"measurement": "discontinuation for documented progressive disease (PD) per RECIST version 1.1, patients", "setting": "[4]; 52 patients, data cut", "result": 26.9, "unit": "%"}, {"measurement": "progressive disease (PD) as best response", "setting": "[4]; of 14 evaluable patients, 40 mg n=3, 80 mg n=1, 120 mg n=1", "result": 5, "unit": "patients"}, {"measurement": "stable disease (SD) as best response", "setting": "[4]; of 14 evaluable patients, 40 mg n=3, 80 mg n=2, 120 mg n=1", "result": 6, "unit": "patients"}, {"measurement": "partial response (PR) as best response", "setting": "[4]; of 14 evaluable patients, 80 mg n=2 both confirmed, 120 mg single PR awaiting confirmation", "result": 3, "unit": "patients"}, {"measurement": "response (PR, CR) versus prior treatment", "setting": "[4]; prior therapies including EGFR TKIs and immuno-oncology agents", "result": "observed in patients regardless of prior treatment therapies"}]}
{"smiles": "C=CC(=O)Nc1cc(Nc2ncc(C(=O)OC(C)C)c(-c3cn(C)c4ccccc34)n2)c(OC)cc1N(C)CCN(C)C.Cc1ccc(S(=O)(=O)O)cc1", "note": "[Tosylate, isopropyl 2-((5-acrylamido-4-((2-(dimethylamino)ethyl) (methyl)amino)-2-methoxyphenyl)amino)-4-(1-methyl-1H-indol-3-yl)pyrimidine-5-carboxylate tosylate]", "values": [{"measurement": "solubility at 24 h", "setting": "[5]", "result": 0.4, "unit": "mg/mL"}, {"measurement": "XRPD after storage", "setting": "[6]; 7 days, all storage conditions (ambient light, 40° C./75% RH, 80° C.)", "result": "No change under all storage"}, {"measurement": "Purity, 40° C./75% RH", "setting": "[6]; HPLC purity after 7 days, open vial, 40° C./75% RH", "result": 99.4}, {"measurement": "Purity, 80° C.", "setting": "[6]; HPLC purity after 7 days, open vial, 80° C.", "result": 99.4}, {"measurement": "Purity, Ambient light", "setting": "[6]; HPLC purity after 7 days, open vial, ambient light, room temperature", "result": 99.5}, {"measurement": "Input purity", "setting": "[6]; HPLC purity before stress storage", "result": 99.7}, {"measurement": "Chemical Stability", "setting": "[6]; summary in Table 17", "result": "Stable"}, {"measurement": "pH at Saturation", "setting": "[7]", "result": 6.38}, {"measurement": "GVS (Hygroscopicity)", "setting": "[8]", "result": 1.4, "unit": "%"}]}
